From article PMC12207590, “Substrate Specificity of the Organic Cation Transporters MATE1 and MATE2K and Functional Overlap with OCT1 and OCT2” (Journal of Medicinal Chemistry, 2025)
Where two headings read alike, the source gives them in different places.

Assays:
MATE2K = MATE2K (Homo sapiens, UniProt Q86VL8); experiment: Uptake ratio in MATE2K-overexpressing HEK293 cells vs empty vector (2.5 μM, 1 min, HPLC-MS/MS); assay type: cell-based; set-up: key to MATE2 substrate*: 1 = substrate; 0 = no substrate; conditions: for MATE2K ratio in this study: Table S1
MATE2K, sequence (Q86VL8 1-566 isoform Q86VL8-3): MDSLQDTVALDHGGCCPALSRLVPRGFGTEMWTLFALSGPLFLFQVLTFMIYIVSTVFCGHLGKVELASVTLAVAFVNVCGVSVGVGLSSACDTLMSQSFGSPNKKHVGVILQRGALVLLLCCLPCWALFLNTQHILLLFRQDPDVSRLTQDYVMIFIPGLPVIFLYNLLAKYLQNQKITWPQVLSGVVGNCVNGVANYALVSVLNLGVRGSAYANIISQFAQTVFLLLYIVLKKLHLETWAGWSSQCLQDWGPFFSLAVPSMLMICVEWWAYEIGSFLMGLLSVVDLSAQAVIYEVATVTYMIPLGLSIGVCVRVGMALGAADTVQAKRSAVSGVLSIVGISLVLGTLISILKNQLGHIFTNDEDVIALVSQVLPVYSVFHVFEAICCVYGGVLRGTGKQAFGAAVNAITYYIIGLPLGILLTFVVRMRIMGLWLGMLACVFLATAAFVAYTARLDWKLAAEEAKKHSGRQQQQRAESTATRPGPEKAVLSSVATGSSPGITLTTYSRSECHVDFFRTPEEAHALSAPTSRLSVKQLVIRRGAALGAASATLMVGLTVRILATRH

MATE1 = target: T1, MATE1 (Homo sapiens, UniProt Q96FL8); experiment: Uptake ratio in MATE1-overexpressing HEK293 cells vs empty vector (2.5 μM, 1 min, HPLC-MS/MS); assay type: cell-based; set-up: key to MATE1 substrate*: 1 = substrate; 0 = no substrate; conditions: for MATE1 ratio in this study: Table S1
T1 sequence (Q96FL8 1-570): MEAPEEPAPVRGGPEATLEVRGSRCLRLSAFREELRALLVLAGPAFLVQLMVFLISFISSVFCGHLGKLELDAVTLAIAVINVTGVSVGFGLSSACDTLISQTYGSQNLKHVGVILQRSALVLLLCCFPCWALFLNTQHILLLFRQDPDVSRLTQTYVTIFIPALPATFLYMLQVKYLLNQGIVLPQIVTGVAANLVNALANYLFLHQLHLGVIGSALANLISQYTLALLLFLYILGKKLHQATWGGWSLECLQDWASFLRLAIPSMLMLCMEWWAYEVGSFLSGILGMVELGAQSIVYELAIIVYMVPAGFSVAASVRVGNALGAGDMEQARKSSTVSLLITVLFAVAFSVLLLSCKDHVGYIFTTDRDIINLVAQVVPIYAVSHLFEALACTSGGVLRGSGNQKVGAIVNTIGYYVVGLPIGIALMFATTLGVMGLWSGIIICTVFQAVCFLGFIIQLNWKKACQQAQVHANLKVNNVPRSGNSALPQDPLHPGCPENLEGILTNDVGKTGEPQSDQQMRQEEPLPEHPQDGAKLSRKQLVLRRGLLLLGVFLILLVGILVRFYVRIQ

[1] = fold uptake over empty vector, 2.5 μM, 1 min
[2] = mean ratio of uptake in MATE2K-overexpressing HEK293 cells vs empty vector, 2.5 μM, 1 min
[3] = mean ratio of uptake in MATE1-overexpressing HEK293 cells vs empty vector, 2.5 μM, 1 min
[4] = uptake ratio MATE2K-overexpressing vs empty-vector HEK293 cells, 2.5 μM, 1 min, mean
[5] = uptake ratio MATE1-overexpressing vs empty-vector HEK293 cells, 2.5 μM, 1 min, mean

## CC(C)(C)NCC(O)COc1cccc2c1CC(O)C(O)C2 (stereo not shown) [Nadolol]
MATE2K; 2.5 μM, 1 min
  MATE2K ratio in this study: 10.12
MATE2K; [1]
  MATE2K ratio: 10.12
MATE1; 2.5 μM, 1 min
  MATE1 ratio in this study: 9.41
MATE1; [1]
  MATE1 ratio: 9.41

## CC[N+](C)(CC)CCOC(=O)C(O)(c1ccccc1)C1CCCCC1 (stereo not shown) [Oxyphenonium]
MATE2K; [1]
  MATE2K ratio: 2.04
MATE1; [1]
  MATE1 ratio: 9.89

## COc1ccc(CC2c3cc(OC)c(OC)cc3CC[N+]2(C)CCC(=O)OCCCCCOC(=O)CC[N+]2(C)CCc3cc(OC)c(OC)cc3C2Cc2ccc(OC)c(OC)c2)cc1OC (stereo not shown) [Atracurium]
MATE2K; [1]
  MATE2K ratio: 1.10
MATE2K; [2]
  MATE2 (uptake ratio): 1.1
MATE1; [1]
  MATE1 ratio: 1.13
MATE1; [3]
  MATE1 (uptake ratio): 1.13

## CNC[C@H](O)c1ccc(O)c(O)c1 [Epinephrine (-), Epinephrine]
MATE2K; [1]
  MATE2K ratio: 3.98
MATE1; [1]
  MATE1 ratio: 37.78

## CCCS(=O)(=O)N[C@H]1C[C@@H](N(C)c2ncnc3[nH]ccc23)C1 [Abrocitinib]
MATE2K; [1]
  MATE2K ratio: 1.19
MATE2K; [2]
  MATE2 (uptake ratio): 1.19
MATE1; [1]
  MATE1 ratio: 1.09
MATE1; [3]
  MATE1 (uptake ratio): 1.09

## CCCCNc1ccc(C(=O)OCCN(C)C)cc1 [Tetracaine]
MATE2K; [4]
  MATE2: 1.3
MATE1; [5]
  MATE1: 1.12

## C[N+]1(C)[C@@H]2C[C@@H](OC(=O)C(O)(c3cccs3)c3cccs3)C[C@H]1[C@@H]1O[C@@H]12 [tiotropium]
MATE2K
  MATE2: 1.94
MATE1
  MATE1: 27.4

## C[N+](C)(C)C[C@H](O)CC(=O)[O-] [Carnitine]
MATE2K
  MATE2 (uptake ratio): 1.13
  MATE2K ratio: 1.13
MATE1
  MATE1 (uptake ratio): 1.16
  MATE1 ratio: 1.16

## CC(CN(C)C)CN1c2ccccc2CCc2ccccc21 (stereo not shown) [Trimipramine]
MATE2K; [4]
  MATE2: 1.2
MATE1; [5]
  MATE1: 1.19

## N=C(N)NCCCCNC(=N)N [Arcaine, 1,4-diguanidinobutane]
MATE2K; [1]
  MATE2K ratio: 16.29
MATE2K; [2]
  MATE2 (uptake ratio): 16.29
MATE1; [1]
  MATE1 ratio: 40.20
MATE1; fold uptake over empty vector, 2.5 μM, 1 min, listed as arcaine
  MATE1 ratio: 40
MATE1; [3]
  MATE1 (uptake ratio): 40.2

## COc1cccc(C2(O)CCCCC2CN(C)C)c1 (stereo not shown) [Tramadol]
MATE2K
  MATE2: 1.44
MATE1
  MATE1: 1.13

## NCCCCN [Putrescine]
MATE2K; [1]
  MATE2K ratio: 0.48
MATE2K; [4]
  MATE2: 0.48
MATE1; [1]
  MATE1 ratio: 0.36
MATE1; [5]
  MATE1: 0.36

## CCN1CCCC1CNC(=O)c1cc(S(=O)(=O)CC)c(N)cc1OC [Amisulpride (R), Amisulpride]
MATE2K; [1]
  MATE2K ratio: 7.40
MATE2K; [2]
  MATE2 (uptake ratio): 7.4
MATE1; [1]
  MATE1 ratio: 8.46
MATE1; [3]
  MATE1 (uptake ratio): 8.46

## CC(C)(CO)[C@@H](O)C(=O)NCCC(=O)O [Pantothenic acid]
MATE2K; [1]
  MATE2K ratio: 1.71
MATE1; [1]
  MATE1 ratio: 1.48

## O=C(Nc1nc2cccc(-c3ccc(CN4CCS(=O)(=O)CC4)cc3)n2n1)C1CC1 [Filgotinib]
MATE2K; [1]
  MATE2K ratio: 1.01
MATE1; [1]
  MATE1 ratio: 0.89

## CCOc1ccccc1OCC1CNCCO1 (stereo not shown) [Viloxazine]
MATE2K
  MATE2: 1.38
MATE1
  MATE1: 1.12

## CC(C)(C)NCC(O)c1ccccc1Cl (stereo not shown) [Tulobuterol]
MATE2K; [4]
  MATE2: 1.74
MATE1; [5]
  MATE1: 1.31

## N[C@@H](CCC(=O)O)C(=O)O [Glutamic acid (D), Glutamic acid]
MATE2K
  MATE2K ratio: 0.99
MATE1
  MATE1 ratio: 1.17

## C[C@]12CC[C@@H]3c4ccc(OS(=O)(=O)O)cc4CC[C@H]3[C@@H]1CCC2=O [Estrone-3-sulfate]
MATE2K; 2.5 μM, 1 min
  MATE2K ratio in this study: 2.08
MATE2K; [1]
  MATE2K ratio: 2.08
MATE1; 2.5 μM, 1 min
  MATE1 ratio in this study: 4.80
MATE1; [1]
  MATE1 ratio: 4.80
MATE1; organic anions tested
  substrate of MATE1: substrates of MATE1

## CN(C)CCc1ccc(O)cc1 [Hordenine]
MATE2K
  MATE2K ratio: 1.20
MATE1
  MATE1 ratio: 1.16

## CC(C)NC(=N)NC(=N)Nc1ccc(Cl)cc1 [Proguanil]
MATE2K; 2.5 μM, 1 min
  MATE2K ratio in this study: 3.98
MATE2K; [1]
  MATE2K ratio: 3.98
MATE1; 2.5 μM, 1 min
  MATE1 ratio in this study: 5.54
MATE1; [1]
  MATE1 ratio: 5.54

## N[C@@H](Cc1c[nH]c2ccccc12)C(=O)O [Tryptophan]
MATE2K
  MATE2: 1.07
MATE1
  MATE1: 0.82

## NCCC(=O)N[C@@H](Cc1cnc[nH]1)C(=O)O [Carnosine]
MATE2K; [1]
  MATE2K ratio: 1.03
MATE2K; [2]
  MATE2 (uptake ratio): 1.03
MATE1; [1]
  MATE1 ratio: 0.18
MATE1; [3]
  MATE1 (uptake ratio): 0.18

## CN1CC(=O)NC1=N [Creatinine]
MATE2K; 2.5 μM, 1 min
  MATE2K ratio in this study: 1.07
MATE2K; [1]
  MATE2K ratio: 1.07
MATE1; 2.5 μM, 1 min
  MATE1 ratio in this study: 0.83
MATE1; [1]
  MATE1 ratio: 0.83

## NCCCCNCCCN [Spermidine]
MATE2K; [1]
  MATE2K ratio: 0.55
MATE2K; [4]
  MATE2: 0.55
MATE1; [1]
  MATE1 ratio: 0.63
MATE1; [5]
  MATE1: 0.63

## Nc1ccc(N)cc1 [p-Phenylenediamine]
MATE2K
  MATE2K ratio: 1.07
MATE1
  MATE1 ratio: 1.04

## CC[N+](CC)(CC)Cc1ccccc1 [Benzyltriethylammonium]
MATE2K; [1]
  MATE2K ratio: 4.52
MATE2K; [2]
  MATE2 (uptake ratio): 4.52
MATE1; [1]
  MATE1 ratio: 25.63
MATE1; [3]
  MATE1 (uptake ratio): 25.63

## N#CC[C@H](C1CCCC1)n1cc(-c2ncnc3[nH]ccc23)cn1 [Ruxolitinib]
MATE2K; [1]
  MATE2K ratio: 0.99
MATE2K; [4]
  MATE2: 0.99
MATE1; [1]
  MATE1 ratio: 1.13
MATE1; [5]
  MATE1: 1.13

## c1cnc2cc3c(cc2n1)[C@@H]1CNC[C@H]3C1 [Varenicline]
MATE2K; 2.5 μM, 1 min
  MATE2K ratio in this study: 1.30
MATE2K; [4]
  MATE2: 1.3
MATE1; 2.5 μM, 1 min
  MATE1 ratio in this study: 1.20
MATE1; [5]
  MATE1: 1.2

## CCN1CCN(Cc2ccc(Nc3ncc(F)c(-c4cc(F)c5nc(C)n(C(C)C)c5c4)n3)nc2)CC1 [Abemaciclib]
MATE2K; [1]
  MATE2K ratio: 1.01
MATE2K; [2]
  MATE2 (uptake ratio): 1.01
MATE1; [1]
  MATE1 ratio: 1.06
MATE1; [3]
  MATE1 (uptake ratio): 1.06

## O=c1ncccn1[C@@H]1O[C@H](CO)[C@@H](O)[C@H]1O [Zebularine]
MATE2K; Table S4
  MATE2 substrate*: 0
MATE2K; [4]
  MATE2: 0.9
MATE1; Table S4
  MATE1 substrate*: 0
MATE1; [5]
  MATE1: 1.12

## CN1C(=O)CC[C@H]1c1cccnc1 [Cotinine]
MATE2K; [1]
  MATE2K ratio: 1.20
MATE1; [1]
  MATE1 ratio: 1.11

## CNCCc1ccccc1 [N-Methyl-2-phenylethylamine]
MATE2K; [1]
  MATE2K ratio: 1.50
MATE1; [1]
  MATE1 ratio: 1.27

## COc1nc(C)nc(Cl)c1N=C1NCCN1 [Moxonidine]
MATE2K; [1]
  MATE2K ratio: 1.78
MATE1; [1]
  MATE1 ratio: 2.02

## CCOC(=O)c1ccc(OC(=O)CCCCCNC(=N)N)cc1 [Gabexate]
MATE2K; [1]
  MATE2K ratio: 4.18
MATE1; [1]
  MATE1 ratio: 5.78

## CNCCCC12CCC(c3ccccc31)c1ccccc12 [Maprotiline]
MATE2K; [1]
  MATE2K ratio: 1.04
MATE1; [1]
  MATE1 ratio: 1.17

## N=C(N)NCCC[C@H](NC(=O)c1ccc2ccccc2c1O)C(=O)N1CCC[C@H]1C(N)=O [APC366]
MATE2K
  MATE2 (uptake ratio): 1.41
  MATE2K ratio: 1.41
MATE1
  MATE1 (uptake ratio): 19.12
  MATE1 ratio: 19.12

## COc1cc(CNC(=O)CCCC/C=C/C(C)C)ccc1O [Capsaicin]
MATE2K; [1]
  MATE2K ratio: 0.99
MATE2K; [2]
  MATE2 (uptake ratio): 0.99
MATE1; [1]
  MATE1 ratio: 1.18
MATE1; [3]
  MATE1 (uptake ratio): 1.18

## COc1ccc2[nH]c3c(c2c1)CCNC3 [Pinoline]
MATE2K
  MATE2K ratio: 1.21
MATE1
  MATE1 ratio: 1.28

## NCC(O)c1ccc(O)cc1 (stereo not shown) [Octopamine]
MATE2K; [1]
  MATE2K ratio: 1.43
MATE1; [1]
  MATE1 ratio: 20.87

## O=C(O[C@H]1C[N+]2(CCCOc3ccccc3)CCC1CC2)C(O)(c1cccs1)c1cccs1 [Aclidinium (S), Aclidinium]
MATE2K; [1]
  MATE2K ratio: 1.64
MATE2K; [2]
  MATE2 (uptake ratio): 1.64
MATE1; [1]
  MATE1 ratio: 5.36
MATE1; [3]
  MATE1 (uptake ratio): 5.36
